Measurements published in publication PMC4468408 (ACS Medicinal Chemistry Letters, 2015).
Where two headings read alike, the source gives them in different places.

What was measured:
P-gp = P-gp substrate test in transfected MDCK cells; format: in vitro ADME
in vitro metabolism = format: in vitro ADME
human tumor xenografts = details: cited from earlier work
[1] = brain total exposure in nude mice; details: for AUC brain (AUC0–8h) / brain Cmax: sodium salts PO 30 mg/kg
[2] = oral dosing of SD rats: exposure, GABAA related effects, toxicity; format: in vivo, SD rat; details: for effects attributable to GABAA binding (CNS effects): SD rats dosed orally; for toxicities observed at the maximum tolerated dose: SD rats, orally for seven consecutive days
major human CYP isozymes = assay: CYP inhibition; format: in vitro ADME
[3] = pharmacokinetics in Sprague-Dawley rat; format: in vivo; details: IV 1 mg/kg, 10% 2-HP-β-CD
[4] = Phase I; cited from earlier work
[5] = stability in human S9 fraction; format: in vitro ADME

| stability in human S9 fraction [5] | Compound | substrate of P-gp (P-gp) | in vitro metabolism (in vitro metabolism) | tumor growth inhibition (human tumor xenografts; multiple human tumor xenograft models) | AUC brain (AUC0–8h) [1] [µg·h/mL] | brain Cmax [1] [µg/mL] | effects attributable to GABAA binding (CNS effects) [2] | toxicities observed at the maximum tolerated dose [2] | IC50 (major human CYP isozymes; human) [µM] | CL [3] [mL min^–1 kg^–1] | incidence of somnolence [4] | tumor growth inhibition (human tumor xenografts; multiple xenograft efficacy models in immunocompromised mice) | CYP inhibition (major human CYP isozymes; concentrations up to 100 μM) | brain AUC reduction ([1]; compared with MLN8054) [fold] |
| --- | --- | --- | --- | --- | --- | --- | --- | --- | --- | --- | --- | --- | --- | --- |
| – | COc1cc(Nc2ncc3c(n2)-c2ccc(Cl)cc2C(c2c(F)cccc2OC)=NC3)ccc1C(=O)O [alisertib (10)] | not a substrate of P-gp | low and is mediated through multiple CYP isoforms and UGTs | significant tumor growth inhibition | 2.0 | 0.42 | No effects attributable to GABAA binding were observed | myelosuppression and mucositis | > 100 | 10.4 | not dose limiting | – | – | – |
| stable in human S9 fraction | O=C(O)c1ccc(Nc2ncc3c(n2)-c2ccc(Cl)cc2C(c2ccccc2F)=NC3)cc1 [compound 7] | – | – | – | – | – | – | – | – | – | – | – | – | – |
| – | O=C(O)c1ccc(Nc2ncc3c(n2)-c2ccc(Cl)cc2C(c2c(F)cccc2F)=NC3)cc1 [MLN8054 (8)] | not a substrate of P-gp | predominantly through CYP1A2 and 3A4 | – | 12.5 | 2.6 | reversible central nervous system (CNS) effects | myelosuppression and mucositis | – | – | – | Significant tumor growth inhibition, with no overt toxicity | no CYP inhibition is observed | – |
| – | COc1cccc(F)c1C1=NCc2cnc(Nc3ccc(C(=O)O)cc3)nc2-c2ccc(Cl)cc21 [compound 9] | – | – | – | 3.5 | 0.93 | No effects attributable to GABAA binding were observed | – | – | – | – | – | – | 3 |
